Laboratory results: PubChem BioAssay AID256 (DTP/NCI, 2004)
“And” between values parts separate entries of the source, which are not always exact repeats. Equal values may be shown once. Inconclusive results and toxic doses are left out. How the source made its calls: active means survival T/C of 150% or more; inactive means T/C below 125% in these data.

System: CD2F1 mice, L1210 leukemia ip, survival T/C
Test: NCI In Vivo Anticancer Drug Screen. Data for tumor model L1210 Leukemia (intraperitoneal) in CD2F1 (CDF1) mice
Conditions: higher = longer survival
Procedure, shortened: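 Mice carrying a transplanted tumor received test compound or vehicle alone. The value is the measurement in the treated group divided by that in the vehicle-treated control group.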

[1] = endpoint: mean survival time, dose: 100.0 mg/kg/injection, schedule: Q01DX001 (ip), vehicle: saline with Tween-80
[2] = endpoint: mean survival time, dose: 200.0 mg/kg/injection, schedule: Q01DX001 (ip), vehicle: saline with Tween-80
[3] = endpoint: mean survival time, dose: 400.0 mg/kg/injection, schedule: Q01DX001 (ip), vehicle: saline with Tween-80
[4] = endpoint: mean survival time, dose: 100.0 mg/kg/injection, schedule: Q04DX003 (ip), vehicle: saline with Tween-80
[5] = endpoint: mean survival time, dose: 50.0 mg/kg/injection, schedule: Q01DX009 (ip), vehicle: saline with Tween-80
[6] = endpoint: mean survival time, dose: 100.0 mg/kg/injection, schedule: Q01DX009 (ip), vehicle: saline with Tween-80
[7] = endpoint: mean survival time, dose: 200.0 mg/kg/injection, schedule: Q01DX009 (ip), vehicle: saline with Tween-80
[8] = endpoint: mean survival time, dose: 100.0 mg/kg/injection, schedule: Q01DX001 (ip), vehicle: saline
[9] = endpoint: mean survival time, dose: 200.0 mg/kg/injection, schedule: Q01DX001 (ip), vehicle: saline
[10] = endpoint: mean survival time, dose: 400.0 mg/kg/injection, schedule: Q01DX001 (ip), vehicle: saline
[11] = endpoint: mean survival time, dose: 100.0 mg/kg/injection, schedule: Q04DX003 (ip), vehicle: other
[12] = endpoint: mean survival time, dose: 200.0 mg/kg/injection, schedule: Q04DX003 (ip), vehicle: other
[13] = endpoint: mean survival time, dose: 400.0 mg/kg/injection, schedule: Q04DX003 (ip), vehicle: other
[14] = endpoint: mean survival time, dose: 200.0 mg/kg/injection, schedule: Q04DX003 (ip), vehicle: saline with Tween-80
[15] = endpoint: mean survival time, dose: 400.0 mg/kg/injection, schedule: Q04DX003 (ip), vehicle: saline with Tween-80
[16] = endpoint: mean survival time, dose: 100.0 mg/kg/injection, schedule: Q04DX003 (ip), vehicle: saline

Measured: T/C

Cc1cc(=O)[nH]c2cc(Br)ccc12
inactive: [1] 91 % of control | [2] 89 % of control | [3] 87 % of control

Nc1nc(N)nc(Cc2ccccc2)n1
inactive: [1] 104 % of control | [2] 103 % of control | [3] 95 % of control

CCn1cnc2c(SC3CCCC3)ncnc21
inactive: endpoint: mean survival time, dose: 100.0 mg/kg/injection, schedule: Q01DX001 (ip), vehicle: carboxymethylcellulose (CMC) 112 % of control | endpoint: mean survival time, dose: 200.0 mg/kg/injection, schedule: Q01DX001 (ip), vehicle: carboxymethylcellulose (CMC) 108 % of control | endpoint: mean survival time, dose: 400.0 mg/kg/injection, schedule: Q01DX001 (ip), vehicle: carboxymethylcellulose (CMC) 121 % of control

Nc1nc(SCc2ccccc2[N+](=O)[O-])c2[nH]cnc2n1
inactive: endpoint: mean survival time, dose: 125.0 mg/kg/injection, schedule: Q01DX Z (ip), vehicle: carboxymethylcellulose (CMC) 102 % of control | endpoint: mean survival time, dose: 250.0 mg/kg/injection, schedule: Q01DX Z (ip), vehicle: carboxymethylcellulose (CMC) 104 % of control | endpoint: mean survival time, dose: 500.0 mg/kg/injection, schedule: Q01DX Z (ip), vehicle: carboxymethylcellulose (CMC) 116 % of control | endpoint: mean survival time, dose: 1000.0 mg/kg/injection, schedule: Q01DX Z (ip), vehicle: carboxymethylcellulose (CMC) 112 % of control

C#CCOCCBr
inactive: endpoint: mean survival time, dose: 50.0 mg/kg/injection, schedule: Q01DX009 (ip), vehicle: acetone 94 % of control | endpoint: mean survival time, dose: 100.0 mg/kg/injection, schedule: Q01DX009 (ip), vehicle: acetone 100 % of control | endpoint: mean survival time, dose: 200.0 mg/kg/injection, schedule: Q01DX009 (ip), vehicle: acetone 103 % of control

Cc1cc(NC(C)CN(C)C)nc(/N=C(\N)Nc2ccc(Cl)c(Cl)c2)n1 (stereo not drawn)
inactive: [4] 96 % of control

CCCN(CCC)N=Nc1ccccc1
inactive: endpoint: mean survival time, dose: 75.0 mg/kg/injection, schedule: Q01DX001 (ip), vehicle: saline 104 % of control | endpoint: mean survival time, dose: 150.0 mg/kg/injection, schedule: Q01DX001 (ip), vehicle: saline 101 % of control

C/C=C/C(O)C1CCCCC1 (stereo not drawn)
inactive: [5] 103 % of control | [6] 98 % of control | [7] 107 % of control

O=S(O)C(=NCc1ccccc1)NCc1ccccc1
inactive: [6] 105 % of control | [7] 86 % of control

CN(N)c1nc2c(=O)[nH]cnc2n1C1OC(CO)C(O)C1O (stereo not drawn)
inactive: endpoint: mean survival time, dose: 12.5 mg/kg/injection, schedule: Q01DX005 (ip), vehicle: water 104 % of control | endpoint: mean survival time, dose: 25.0 mg/kg/injection, schedule: Q01DX005 (ip), vehicle: water 101 % of control | endpoint: mean survival time, dose: 50.0 mg/kg/injection, schedule: Q01DX005 (ip), vehicle: water 95 % of control | endpoint: mean survival time, dose: 100.0 mg/kg/injection, schedule: Q01DX005 (ip), vehicle: water 103 % of control | endpoint: mean survival time, dose: 200.0 mg/kg/injection, schedule: Q01DX005 (ip), vehicle: water 95 % of control

C[N+](C)(CCCCCC[N+](C)(C)Cc1ccccc1)Cc1ccccc1
inactive: endpoint: mean survival time, dose: 1.25 mg/kg/injection, schedule: Q01DX009 (ip), vehicle: saline with Tween-80 93 % of control | endpoint: mean survival time, dose: 2.5 mg/kg/injection, schedule: Q01DX009 (ip), vehicle: saline with Tween-80 93 % of control | endpoint: mean survival time, dose: 5.0 mg/kg/injection, schedule: Q01DX009 (ip), vehicle: saline with Tween-80 93 % of control | endpoint: median survival time, dose: 0.63 mg/kg/injection, schedule: Q04DX002 (ip), vehicle: saline with Tween-80 112 % of control | endpoint: median survival time, dose: 1.25 mg/kg/injection, schedule: Q04DX002 (ip), vehicle: saline with Tween-80 100 % of control | endpoint: median survival time, dose: 2.5 mg/kg/injection, schedule: Q04DX002 (ip), vehicle: saline with Tween-80 100 % of control | endpoint: median survival time, dose: 5.0 mg/kg/injection, schedule: Q04DX002 (ip), vehicle: saline with Tween-80 100 % of control

N#CC1(OC2OC(CO)C(O)C(O)C2O)C=CC(O)C1O (stereo not drawn)
inactive: [8] 101 % of control | [9] 101 % of control | [10] 98 % of control

O=C1C2C3CCC(C3)C2C(=O)C2C3CCC(C3)C12 (stereo not drawn)
inactive: [11] 93 % of control | [12] 89 % of control | [13] 93 % of control

O=C(C(c1ccccc1)C(F)(F)F)N1CCCC1 (stereo not drawn)
inactive: [4] 97 % of control | [14] 100 % of control | [15] 97 % of control

Cc1ccc(N=Cc2cc(Cl)ccc2O)cc1.Cc1ccc(N=Cc2cc(Cl)ccc2O)cc1.[Co]
inactive: endpoint: mean survival time, dose: 25.0 mg/kg/injection, schedule: Q04DX003 (ip), vehicle: saline 95 % of control and 104 % of control | endpoint: mean survival time, dose: 50.0 mg/kg/injection, schedule: Q04DX003 (ip), vehicle: saline 98 % of control and 108 % of control | [16] 124 % of control and 89 % of control

CC1(C)N=C(N)N=C(N)N1c1ccc(C(=O)c2ccccc2)cc1
inactive: [4] 91 % of control

S=C1OC(c2ccccc2)(c2ccccc2)c2ccsc21
inactive: endpoint: mean survival time, dose: 25.0 mg/kg/injection, schedule: Q01DX001 (ip), vehicle: saline with Tween-80 95 % of control | endpoint: mean survival time, dose: 50.0 mg/kg/injection, schedule: Q01DX001 (ip), vehicle: saline with Tween-80 95 % of control

O=c1[nH]ccc(=S)[nH]1
inactive: [1] 97 % of control | [2] 88 % of control

O=C1NC(c2ccccc2)N=C2Oc3ccccc3C=C12 (stereo not drawn)
inactive: endpoint: mean survival time, dose: 1.56 mg/kg/injection, schedule: Q01DX009 (ip), vehicle: saline with Tween-80 103 % of control | endpoint: mean survival time, dose: 3.12 mg/kg/injection, schedule: Q01DX009 (ip), vehicle: saline with Tween-80 94 % of control and 97 % of control and 98 % of control | endpoint: mean survival time, dose: 6.25 mg/kg/injection, schedule: Q01DX009 (ip), vehicle: saline with Tween-80 100 % of control (2×) and 103 % of control | [6] 92 % of control

CN(C)N=Nc1ccc(C(=O)N/N=C/c2ccccc2[N+](=O)[O-])cc1
inactive: [16] 104 % of control | endpoint: mean survival time, dose: 200.0 mg/kg/injection, schedule: Q04DX003 (ip), vehicle: saline 101 % of control | endpoint: mean survival time, dose: 400.0 mg/kg/injection, schedule: Q04DX003 (ip), vehicle: saline 115 % of control

C/C(=N\NC(N)=S)c1c(O)cc(C)[nH]c1=O
inactive: [8] 97 % of control | [9] 101 % of control | [10] 98 % of control

O=C(O)COc1ccc(-c2ccccc2)cc1
inactive: [4] 104 % of control | [14] 90 % of control | [15] 101 % of control

OC1C2CCC1C(N1CCOCC1)CC2 (stereo not drawn)
inactive: [5] 103 % of control | [6] 109 % of control | [4] 98 % of control | [7] 97 % of control | [14] 102 % of control

CCCCCCCCCCCCCCCC(CCCCCC)CCCCCC
inactive: endpoint: mean survival time, dose: 100.0 mg/kg/injection, schedule: Q01DX001 (ip), vehicle: saline sonified 102 % of control | endpoint: mean survival time, dose: 200.0 mg/kg/injection, schedule: Q01DX001 (ip), vehicle: saline sonified 98 % of control | endpoint: mean survival time, dose: 400.0 mg/kg/injection, schedule: Q01DX001 (ip), vehicle: saline sonified 102 % of control

CC(=O)OCC1OC(OC(C)=O)C(NC(=O)N(CCN(C)CCO)N=O)C(OC(C)=O)C1OC(C)=O (stereo not drawn)
inactive: endpoint: mean survival time, dose: 4.06 mg/kg/injection, schedule: Q04DX002 (ip), vehicle: saline + alcohol 100 % of control | endpoint: mean survival time, dose: 8.13 mg/kg/injection, schedule: Q04DX002 (ip), vehicle: saline + alcohol 101 % of control | endpoint: mean survival time, dose: 16.25 mg/kg/injection, schedule: Q04DX002 (ip), vehicle: saline + alcohol 101 % of control | endpoint: mean survival time, dose: 32.5 mg/kg/injection, schedule: Q04DX002 (ip), vehicle: saline + alcohol 97 % of control | endpoint: mean survival time, dose: 65.0 mg/kg/injection, schedule: Q04DX002 (ip), vehicle: saline + alcohol 101 % of control | endpoint: mean survival time, dose: 130.0 mg/kg/injection, schedule: Q04DX002 (ip), vehicle: saline + alcohol 107 % of control

O=S(=O)(c1ccccc1)C(Cl)Cl
inactive: [11] 95 % of control | [12] 100 % of control | [13] 100 % of control
